Data: ChEMBL document CHEMBL1201862, “PubChem BioAssay data set” (2004)
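Test compounds were applied to cells in 96-well plates for 48 hours at 5 doses. GI50 marks 50% less growth.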 The source made the active and inactive calls. Rule as the data show it: active = GI50 up to about 1.1 µM and inactive = higher.

Key:
Test in all cases: growth of human tumour cells (NCI), 48 h
[1] = system: CAKI-1
[2] = system: COLO 205
[3] = system: EKVX
[4] = system: HOP-62
[5] = system: HT-29
[6] = system: K562
[7] = system: KM12
[8] = system: LOX IMVI
[9] = system: MOLT-4
[10] = system: NCI-H226
[11] = system: NCI-H23
[12] = system: OVCAR-4
[13] = system: OVCAR-5
[14] = system: OVCAR-8
[15] = system: RPMI-8226
[16] = system: SK-MEL-2
[17] = system: SK-MEL-5
[18] = system: SK-OV-3
[19] = system: SN12C
[20] = system: UACC-257

Measured: GI50

Nc1nnc(N)n1NC(=O)C(=O)Nc1ccc([N+](=O)[O-])cc1
inactive: [1] > 100 µM | [2] > 100 µM | [3] > 100 µM | [4] > 100 µM | [5] > 100 µM | [6] 98.9 µM | [7] > 100 µM | [8] > 100 µM | [9] > 100 µM | [10] > 100 µM | [11] > 100 µM | [12] > 100 µM | [13] > 100 µM | [14] > 100 µM | [15] > 100 µM | [16] > 100 µM | [17] > 100 µM | [18] > 100 µM | [19] > 100 µM | [20] > 100 µM

CN(C(=O)c1ccc(OCCCC(=O)O)c(Cl)c1Cl)C1CCCC1
inactive: [1] > 28.6 µM | [2] > 100 µM | [3] > 100 µM | [4] > 100 µM | [5] > 100 µM | [6] > 100 µM | [7] > 100 µM | [8] > 100 µM | [9] > 100 µM | [10] 83.8 µM | [11] > 76.7 µM | [12] > 100 µM | [13] > 100 µM | [14] > 100 µM | [15] 98.6 µM | [16] > 79.8 µM | [17] > 100 µM | [18] > 100 µM | [19] > 100 µM | [20] > 100 µM

CCCCCCCCCCCC1=C(O)C(=O)C=C(O)C1=O [EMBELIN]
inactive: [1] 4.26 µM | [2] 7.5 µM | [3] 7.31 µM | [4] 5.56 µM | [5] 8.15 µM | [6] 7.67 µM | [7] 6.38 µM | [8] 7.35 µM | [9] 6.35 µM | [10] 5.25 µM | [11] 7.05 µM | [12] 10 µM | [13] 8.83 µM | [14] 2.01 µM | [15] 3.81 µM | [16] 5.11 µM | [17] 4.84 µM | [18] 8.43 µM | [19] 4.73 µM | [20] 6.17 µM

COc1ccc2cc1Oc1ccc(cc1)C[C@H]1c3cc(c(OC)cc3CCN1C)Oc1c(O)c(OC)cc3c1[C@H](C2)N(C)CC3 [FANGCHINOLINE]
inactive: [1] 3.54 µM | [2] 15.8 µM | [3] 4.45 µM | [4] 37.6 µM | [5] 22.3 µM | [6] 11.4 µM | [7] 16.8 µM | [8] 5.3 µM | [9] 11.7 µM | [10] 39.9 µM | [11] 40 µM | [12] 26.5 µM | [13] 46.3 µM | [14] 5.25 µM | [15] 8.91 µM | [16] 26.5 µM | [17] 13.6 µM | [18] 28.4 µM | [19] 38.8 µM | [20] 9.48 µM
